Experimental findings from article PMC11222147, “Host defence peptide plectasin targets bacterial cell wall precursor lipid II by a calcium-sensitive supramolecular mechanism” (Nature Microbiology, 2024) are described below.

Molecules are shown by their SMILES. Where two headings read alike, the source gives them in different places.

One assay has as its system S. simulans 22. The format is cell-based, Staphylococcus simulans. The note with it: for MIC: cation-depleted MHB + 0.5 mM MgCl2 + 10 µM ZnSO4. As to the method: Cation-depleted MHB was prepared as previously described[18] and supplemented with MgCl2 (0.5 mM) and ZnSO4 (10 µM). Plectasin was serially diluted twofold over a 96-well polypropylene plate. Serial dilutions of Ca^2+ in calcium-depleted medium were subsequently added to the wells containing the plectasin dilution series, followed by addition of bacterial suspensions. MICs were determined by visual inspection after 16–20 h (Staphylococcus). The effect of reduced Ca^2+ levels on S. simulans growth in the absence of plectasin was assessed by monitoring growth at 37 °C by OD600 over 18 h (Supplementary Fig. 4).

A further assay relates to S. simulans. The experiment in a line: Bacterial permeabilization assay (DiSC2(5), SYTOX green). The format is cell-based, Staphylococcus simulans. The note with it: DiSC2(5) and SYTOX green, concentrations higher than the MIC, 20 °C. As to the method:
Overnight cultures (37 °C, TSB) of S. simulans were diluted to OD600 = 0.1 and grown until mid-log phase (OD600 = 0.5–0.8) and collected by centrifugation (2,000 × g, room temperature, 5 min). Cell pellets were washed with buffer (10 mM Tris, 50 mM NaCl and 0.5% w/v glucose at pH = 7.2), resuspended to OD600 = 10 and stored at 4 °C until use. All assays were performed on a Cary Eclipse (FL0904M005) fluorometer. Measurements were done using bacterial suspensions at OD600 = 0.05 in the aforementioned buffer under constant stirring at 20 °C in a 4 × 10 mm quartz cuvette. About 0.2 µM 3,3′-diethylthiadicarbocyanine iodide or 0.25 µM SYTOX green was added and equilibrated for 2 min before addition of an antibiotic. For 3,3′-diethylthiadicarbocyanine iodide, we used excitation and emission wavelengths of 650 nm and 670 nm, respectively, while for SYTOX green, we used 504 nm and 523 nm. About 5 nm slits were used, and fluorescence signal was averaged every 0.3 s.

As to `CC[C@H](C)[C@@H]1NC(=O)[C@H](CO)NC(=O)[C@H](CCCCN)NC(=O)[C@@H]2CSSC[C@@H](C(=O)N[C@@H](Cc3ccc(O)cc3)C(=O)O)NC(=O)[C@H](CCCCN)NC(=O)[C@@H]3CSSC[C@H](NC(=O)[C@H](CCC(N)=O)NC(=O)[C@H](CCSC)NC(=O)[C@H](CC(=O)O)NC(=O)[C@H](CC(=O)O)NC(=O)[C@H](CCC(=O)O)NC(=O)[C@H](CC(=O)O)NC(=O)[C@H](Cc4c[nH]c5ccccc45)NC(=O)[C@@H]4CCCN4C(=O)CNC(=O)[C@H](CC(N)=O)NC(=O)[C@@H](NC(=O)CNC(=O)[C@H](Cc4ccccc4)NC(=O)CN)CSSC[C@H](NC(=O)[C@H](Cc4ccc(O)cc4)NC(=O)CNC(=O)CNC(=O)[C@H](CCCCN)NC(=O)[C@H](Cc4ccc(O)cc4)NC(=O)CNC(=O)[C@H](CCCCN)NC1=O)C(=O)N[C@@H](C)C(=O)N[C@@H](CCCCN)C(=O)NCC(=O)NCC(=O)N[C@@H](Cc1ccccc1)C(=O)N[C@@H](C(C)C)C(=O)N3)C(=O)N[C@@H](Cc1c[nH]cn1)C(=O)N[C@@H](CC(N)=O)C(=O)N[C@@H](Cc1c[nH]cn1)C(=O)N2` [Plectasin wt], the “improvement of antimicrobial activity with increasing Ca^2+ concentration” value with S. simulans 22 (Ca^2+ variable assay) was 4-8 fold. Also, the MIC in the assay on S. simulans 22 (Calcium 0 mM) was 12.5 µg/mL; with S. simulans 22 (Calcium 0.31 mM) it was 1.56 µg/mL; in the assay with S. simulans 22 (Calcium 0.5 mM), 1.56 µg/mL; with S. simulans 22 (Calcium 0.63 mM), 1.56 µg/mL; in the assay with S. simulans 22 (Calcium 1.25 mM), 1.56 to 3.13 µg/mL; with S. simulans 22 (Calcium 2.5 mM), 3.13 µg/mL. In the assay with S. simulans, the “leakage in S. simulans membranes (in words)” value was “does not cause leakage”.
